Experiments:
[1] = molecular target: T1, Kv2.1/Kv6.4 heterotetramer (Homo sapiens, UniProt Q14721+Q8TDN1); assay: whole-cell patch clamp, Hill fit of current at +[…] mV; format: cell-based
T1 construct: gene KCNB1; co-transfected in mouse Ltk- cells, KvS:Kv2.1 10:1 cDNA; formerly named Kv6.3
T1 sequence (Q14721 1-858): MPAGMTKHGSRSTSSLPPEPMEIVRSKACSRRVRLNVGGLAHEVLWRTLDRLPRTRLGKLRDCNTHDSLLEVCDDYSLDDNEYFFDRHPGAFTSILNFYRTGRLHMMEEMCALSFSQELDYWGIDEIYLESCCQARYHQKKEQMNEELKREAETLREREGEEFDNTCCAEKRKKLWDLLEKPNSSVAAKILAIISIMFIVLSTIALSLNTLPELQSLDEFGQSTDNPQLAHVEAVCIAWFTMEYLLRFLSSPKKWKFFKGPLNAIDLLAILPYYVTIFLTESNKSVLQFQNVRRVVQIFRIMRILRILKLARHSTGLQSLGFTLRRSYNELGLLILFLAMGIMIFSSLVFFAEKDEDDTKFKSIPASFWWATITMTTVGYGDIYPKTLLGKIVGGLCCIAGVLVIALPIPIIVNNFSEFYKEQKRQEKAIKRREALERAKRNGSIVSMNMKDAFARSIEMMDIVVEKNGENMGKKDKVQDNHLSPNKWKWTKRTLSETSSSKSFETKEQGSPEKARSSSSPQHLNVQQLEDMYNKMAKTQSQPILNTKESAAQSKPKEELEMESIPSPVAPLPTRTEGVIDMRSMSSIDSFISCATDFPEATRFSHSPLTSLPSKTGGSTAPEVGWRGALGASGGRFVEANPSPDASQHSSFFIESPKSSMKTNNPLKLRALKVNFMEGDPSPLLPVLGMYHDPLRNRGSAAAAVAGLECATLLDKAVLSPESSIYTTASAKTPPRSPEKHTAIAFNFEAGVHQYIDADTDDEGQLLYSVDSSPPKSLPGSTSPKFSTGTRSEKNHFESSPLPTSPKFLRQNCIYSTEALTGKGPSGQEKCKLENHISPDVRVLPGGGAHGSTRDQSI
T1 sequence (Q8TDN1 1-519): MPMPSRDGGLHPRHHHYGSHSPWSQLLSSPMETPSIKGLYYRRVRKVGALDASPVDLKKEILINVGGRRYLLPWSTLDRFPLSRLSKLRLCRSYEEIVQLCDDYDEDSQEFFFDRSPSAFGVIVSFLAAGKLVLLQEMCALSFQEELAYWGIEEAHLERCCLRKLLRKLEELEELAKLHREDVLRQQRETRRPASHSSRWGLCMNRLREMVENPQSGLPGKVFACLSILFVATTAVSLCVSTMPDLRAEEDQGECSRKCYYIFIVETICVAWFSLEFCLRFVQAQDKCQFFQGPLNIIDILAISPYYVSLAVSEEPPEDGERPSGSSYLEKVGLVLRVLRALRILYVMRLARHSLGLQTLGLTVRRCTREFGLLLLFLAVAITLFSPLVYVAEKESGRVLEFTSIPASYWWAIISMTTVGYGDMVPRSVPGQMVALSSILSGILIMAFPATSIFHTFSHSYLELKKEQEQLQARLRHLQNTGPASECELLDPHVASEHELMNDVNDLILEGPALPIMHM

Kv2.1 homotetramer = molecular target: T2, Kv2.1 homotetramer (Homo sapiens, UniProt Q14721); assay: as above; format: cell-based
T2 construct: gene KCNB1; full-length in eGFP-N1 vector, transiently expressed in mouse Ltk- cells; homotetramer
T2 sequence (Q14721 1-858): T1 sequence (Q14721 1-858)

[2] = molecular target: T3, Kv2.1/Kv5.1 heterotetramer (Homo sapiens, UniProt Q14721+Q9H3M0); assay: whole-cell patch clamp, current block; format: cell-based; conditions: pH 7.35 outside, 20-23 °C
T3 construct: gene KCNB1; co-transfected in mouse Ltk- cells, KvS:Kv2.1 10:1 cDNA
T3 sequence (Q14721 1-858): T1 sequence (Q14721 1-858)
T3 sequence (Q9H3M0 1-494): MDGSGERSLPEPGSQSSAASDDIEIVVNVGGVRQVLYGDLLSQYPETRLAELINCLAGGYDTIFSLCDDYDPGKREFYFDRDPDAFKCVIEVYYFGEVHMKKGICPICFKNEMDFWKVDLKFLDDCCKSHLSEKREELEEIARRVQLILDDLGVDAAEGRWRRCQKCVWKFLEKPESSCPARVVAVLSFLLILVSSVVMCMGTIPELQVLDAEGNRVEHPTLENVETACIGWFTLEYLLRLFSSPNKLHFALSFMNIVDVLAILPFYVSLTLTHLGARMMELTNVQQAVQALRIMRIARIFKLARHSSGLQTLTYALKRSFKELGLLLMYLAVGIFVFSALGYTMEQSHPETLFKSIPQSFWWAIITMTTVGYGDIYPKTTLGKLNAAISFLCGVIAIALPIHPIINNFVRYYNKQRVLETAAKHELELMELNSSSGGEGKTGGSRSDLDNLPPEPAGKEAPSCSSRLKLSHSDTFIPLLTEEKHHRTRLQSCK

Kv2.1/Kv6.4_S6c_Kv9.3 = test system: T4, Kv2.1/Kv6.4_S6c_Kv9.3; assay: whole-cell patch clamp, current block; format: cell-based, Homo sapiens (Kv2.1, Kv6.4); Mus musculus (Kv9.3 S6c); conditions: pH 7.35 outside, 20-23 °C
T4 construct: gene KCNB1

| IC50 [1] [µM] | IC50 (Kv2.1 homotetramer) [µM] | SMILES | % inhibition at 18 mM [2] [%] | % inhibition at 18 mM (Kv2.1/Kv6.4_S6c_Kv9.3) [%] |
| --- | --- | --- | --- | --- |
| 2 ± 0.1 | 7.4 ± 0.8 | O=C(NCC1CCCCN1)c1cc(OCC(F)(F)F)ccc1OCC(F)(F)F (stereo not drawn) [flecainide] | – | – |
| – | – | Nc1ccncc1 [4-aminopyridine] | 10 ± 2 | 12 ± 3 |
| 3 ± 0.1 | 7.2 ± 0.8 | C=C[C@H]1C[N@@]2CC[C@H]1C[C@@H]2[C@@H](O)c1ccnc2ccc(OC)cc12 [quinidine] | – | – |

Reference: article PMC4623978, “Modulation of Closed−State Inactivation in Kv2.1/Kv6.4 Heterotetramers as Mechanism for 4−AP Induced Potentiation” (PLoS ONE, 2015)
